# Experimental data taken from patent US7604949B2, “Methods and compositions that affect melanogenesis” (New York University, priority 1999, dated 2009).
# Columns and labels:
# tyrosinase [1] = target: T1, tyrosinase (Mus musculus, UniProt P11344); test: Tyrosinase activity of melan-a cell extracts (radiometric tyrosine hydroxylase assay); type: cell-based; details: melan-a cells, 48 hours, vs untreated
# T1 sequence (P11344 19-533): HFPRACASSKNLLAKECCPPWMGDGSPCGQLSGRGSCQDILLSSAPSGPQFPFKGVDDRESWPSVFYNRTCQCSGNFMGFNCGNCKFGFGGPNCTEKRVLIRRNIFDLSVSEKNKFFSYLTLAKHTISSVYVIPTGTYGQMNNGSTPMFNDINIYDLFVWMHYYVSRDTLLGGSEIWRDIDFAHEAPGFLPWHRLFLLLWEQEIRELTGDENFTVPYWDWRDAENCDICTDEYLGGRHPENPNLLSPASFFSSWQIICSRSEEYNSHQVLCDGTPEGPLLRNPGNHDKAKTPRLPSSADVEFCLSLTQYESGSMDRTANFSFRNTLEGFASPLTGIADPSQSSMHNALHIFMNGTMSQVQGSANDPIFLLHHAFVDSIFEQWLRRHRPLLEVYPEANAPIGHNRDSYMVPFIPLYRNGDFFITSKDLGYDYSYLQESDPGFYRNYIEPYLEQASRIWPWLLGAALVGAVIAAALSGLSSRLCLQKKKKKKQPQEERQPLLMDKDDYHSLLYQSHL
# P protein = target: T2, P protein (Mus musculus, UniProt Q62052); test: Tyrosinase activity of extracts of COS cells transfected with tyrosinase-encoding and P protein-encoding genes (T+P); type: cell-based; details: vs untreated
# T2 construct: expressed in transfected cells; host or cells: COS cells (monkey kidney), co-transfected with the tyrosinase vector
# T2 sequence (Q62052 1-833): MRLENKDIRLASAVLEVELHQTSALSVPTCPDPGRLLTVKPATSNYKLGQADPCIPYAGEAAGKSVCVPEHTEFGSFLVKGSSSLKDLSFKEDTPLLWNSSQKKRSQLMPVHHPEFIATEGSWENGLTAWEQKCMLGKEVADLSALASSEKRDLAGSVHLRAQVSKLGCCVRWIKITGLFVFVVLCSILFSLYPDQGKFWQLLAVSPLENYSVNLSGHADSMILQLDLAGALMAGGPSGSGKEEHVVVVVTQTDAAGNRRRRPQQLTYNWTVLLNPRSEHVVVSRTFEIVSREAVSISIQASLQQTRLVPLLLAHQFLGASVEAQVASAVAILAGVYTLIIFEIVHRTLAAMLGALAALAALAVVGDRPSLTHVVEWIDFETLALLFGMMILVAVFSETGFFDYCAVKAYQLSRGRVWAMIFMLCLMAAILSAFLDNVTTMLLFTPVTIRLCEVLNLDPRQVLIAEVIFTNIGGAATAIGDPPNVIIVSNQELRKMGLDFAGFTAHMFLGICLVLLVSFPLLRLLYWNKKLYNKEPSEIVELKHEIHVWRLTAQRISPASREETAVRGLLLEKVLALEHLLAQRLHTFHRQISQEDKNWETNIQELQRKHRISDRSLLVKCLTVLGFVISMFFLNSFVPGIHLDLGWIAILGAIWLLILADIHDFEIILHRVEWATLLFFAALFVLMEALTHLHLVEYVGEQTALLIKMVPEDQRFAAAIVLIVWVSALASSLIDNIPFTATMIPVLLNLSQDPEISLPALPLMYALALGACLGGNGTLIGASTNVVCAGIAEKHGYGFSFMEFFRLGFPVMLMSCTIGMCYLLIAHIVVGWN
# Text: (§1) Expression vectors were constructed to express P protein and tyrosinase genes in cultured cells. Specifically, the coding sequence for tyrosinase was removed as a HindIII-EcoRI fragment from clone TYBS (Yokohama et al., 1990, Nucl. Acids. Res. 18:7293-7298) and cloned into the HindIII/EcoRI sites of pcDNA I/lamp (Invitrogen, Calif.). Coding sequence for the P protein was removed as a BamHI-EcoRI fragment from MC2701 (Gardner et al., 1992, supra) and cloned into the BamHI/EcoRV sites of pcDNA3 and pcDNA3.1/V5/His-TOPO (Invitrogen, Calif.). COS cells were transfected with the pcDNA1-based plasmids and FuGENE™ 6 (Roche Molecular Biochemicals, Indianapolis, Ind.) as transfection agents for 48 hours. Cells were transformed with: (i) the vector alone; (ii) the vector carrying a tyrosinase-encoding gene; (iii) the vector carrying a P protein-encoding gene; or (iv) vectors carrying a tyrosinase-encoding gene and a P protein-encoding gene. Transformed cells were washed and extracted as above. Tyrosinase activity was then measured as above. Tyrosinase assays were performed on 60 micrograms of cell protein.
# (§2) The tyrosinase activity of cell extracts was determined as above.
# tyrosinase [2] = target: T1, tyrosinase; test: Tyrosinase activity of extracts of COS cells transfected with tyrosinase-encoding gene alone (V+T); type: cell-based; parameters: expressed in transfected cells; host or cells: COS cells (monkey kidney); details: vs untreated
# Text: as §1, §2
# melan-p1 cells [3] = test: Secretion of tyrosinase into medium of melan-p1 cells with protease inhibitor; type: cell-based, mouse
# Experimental: (§3) (A) Melan-p1 cells incubated in low (0.03 mM) tyrosine and high (0.3 mM) tyrosine (TYR) were treated for 48 hours with increasing concentrations of the protease inhibitor E64 (μM). The tyrosinase activity in the media is expressed as a percentage of total activity in the extract and medium. (B) The concentration of melanin was determined by solubilizing the cell pellet and measuring the absorbance at 470 nm.
# Tyrosinase is a type I membrane protein anchored in the membrane, and it is thus likely that proteolysis, which leads to the clipping of the tail, is required for secretion. The truncated protein would not be detected by αPEP7, which is directed against the tail, although the catalytic domains would remain functional. We, therefore, examined the effects of a series of protease inhibitors on the secretion of tyrosinase by melan-a and melan-p1 cells.
# (§4) If proteolysis and secretion of tyrosinase were the precipitating factor in the misrouting of tyrosinase, then E64 should increase melanin accumulation in melan-p1 cells. […] A range of E64 concentrations was tested at low (0.03 mM) and high (0.3 mM) tyrosine.
# melan-p1 cells [4] = test: Melanin content of melan-p1 cells with protease inhibitor; type: cell-based, mouse; details: melan-p1, high concentrations of tyrosine
# Experimental: as §3, §4
# [5] = tested on: late endosomal/lysosomal cholesterol trafficking; details: cited from earlier work
# p-glycoprotein ATPase = p-glycoprotein ATPase (Cricetulus griseus, UniProt P21448); details: micromolar concentrations; cited from earlier work
# Sequence of p-glycoprotein ATPase (P21448 whole entry): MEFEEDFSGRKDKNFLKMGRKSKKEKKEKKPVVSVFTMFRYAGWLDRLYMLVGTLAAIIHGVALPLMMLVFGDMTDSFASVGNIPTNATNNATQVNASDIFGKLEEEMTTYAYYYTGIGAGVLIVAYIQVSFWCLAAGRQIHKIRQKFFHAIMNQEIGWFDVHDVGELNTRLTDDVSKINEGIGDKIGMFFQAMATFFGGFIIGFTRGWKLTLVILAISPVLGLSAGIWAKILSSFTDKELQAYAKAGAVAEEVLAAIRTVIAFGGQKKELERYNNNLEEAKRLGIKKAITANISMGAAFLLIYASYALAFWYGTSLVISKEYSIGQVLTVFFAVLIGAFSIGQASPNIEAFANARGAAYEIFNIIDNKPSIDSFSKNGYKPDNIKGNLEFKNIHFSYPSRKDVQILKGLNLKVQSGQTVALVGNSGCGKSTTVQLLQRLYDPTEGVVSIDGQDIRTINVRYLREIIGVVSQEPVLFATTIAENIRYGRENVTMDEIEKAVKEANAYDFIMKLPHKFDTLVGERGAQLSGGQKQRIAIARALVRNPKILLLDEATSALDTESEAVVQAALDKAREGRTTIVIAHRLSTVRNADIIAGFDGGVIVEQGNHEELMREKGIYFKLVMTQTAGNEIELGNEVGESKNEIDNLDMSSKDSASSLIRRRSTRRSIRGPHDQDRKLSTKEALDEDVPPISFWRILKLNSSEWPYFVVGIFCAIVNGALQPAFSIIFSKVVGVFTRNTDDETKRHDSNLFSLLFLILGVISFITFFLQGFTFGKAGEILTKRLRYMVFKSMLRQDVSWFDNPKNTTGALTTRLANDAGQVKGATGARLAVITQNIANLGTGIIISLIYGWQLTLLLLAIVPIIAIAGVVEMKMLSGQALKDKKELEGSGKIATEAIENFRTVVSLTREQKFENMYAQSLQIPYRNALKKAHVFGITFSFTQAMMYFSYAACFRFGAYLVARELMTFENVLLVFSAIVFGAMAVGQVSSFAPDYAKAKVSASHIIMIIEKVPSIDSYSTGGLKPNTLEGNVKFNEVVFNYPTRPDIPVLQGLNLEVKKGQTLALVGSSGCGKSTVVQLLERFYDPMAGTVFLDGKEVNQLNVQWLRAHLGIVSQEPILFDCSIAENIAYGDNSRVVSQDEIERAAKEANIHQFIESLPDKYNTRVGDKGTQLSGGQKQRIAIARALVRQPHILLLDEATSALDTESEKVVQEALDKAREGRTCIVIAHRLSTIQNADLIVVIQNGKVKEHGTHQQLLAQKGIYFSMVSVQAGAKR
# [6] = tested on: amelanotic melanoma cells that express tyrosinase; details: nanomolar concentrations; cited from earlier work
# [7] = tested on: Melan-a wild type melanocytes; test: Melanin content after ATPase inhibitor treatment, Melan-a; type: cell-based, mouse; details: 36 hours
# Experimental: (§5) Wild type melan-a (a/a, P/P), an immortalized melanocyte line derived from C57BL6J mice; melan-p1 melanocytes (a/a, p^cp/p^25H), an immortalized line derived from p-null mice; melan-p1 (P10), a melan-p1 line stably transfected with an expression plasmid carrying the pink-eyed dilution gene; B16, an amelanotic mouse melanoma cell line; and B16F10, a slightly pigmented mouse melanoma cell line, were used in this study.
# (§6) Cells were cultured in RMPI-1640 (Sigma, St. Louis, Mo.) supplemented with 10% fetal calf serum, 5% sodium pyruvate, 5% glutamate, 5 units/ml penicillin, 5 μg/ml streptomycin, 1% non-essential amino acids and 200 nM 12-O-tetradecanoyl phorbol 13-acetate for 24 hours The medium was than replaced with RPMI containing either 0, 1, 2 or 2.5 μM bafilomycin A1 (Sigma, St. Louis, Mo.) or 0, 0.5 or 1.0 μM concanamycin A (Sigma, St. Louis, Mo.). […] The supernatant was removed and protein content determined using a protein assay kit (BioRad, Richmond, Calif.).
# (§7) The melanin content in the pellet was determined following removal of the supernatant Each sample was treated with 0.5 ml ethanol:ether (1:1), vortexed and incubated at room temperature for 10 minutes. […] The sample was then transferred to a 96-well plate and the optical density was read at 490 nm. […]
# B16 melanoma cells = test: Melanin content after ATPase inhibitor treatment, B16; type: cell-based, mouse; details: 36 hours
# Experimental: as §5, §6, §7
# Melan-p (P10) cells = test: Melanin content after ATPase inhibitor treatment, Melan-p (P10); type: cell-based, mouse; details: 36 hours
# Experimental: as §5, §6, §7
# [8] = tested on: Melan-p p-null melanocytes; test: Melanin content after ATPase inhibitor treatment, Melan-p; type: cell-based, mouse; details: 36 hours
# Experimental: as §5, §6, §7
# B16F10 melanoma cells = test: Melanin content after ATPase inhibitor treatment, B16F10; type: cell-based, mouse; details: 36 hours
# Experimental: as §5, §6, §7
# [9] = concanamycin A 0, 0.5 or 1.0 μM
# [10] = bafilomycin A1 0, 1, 2 or 2.5 μM
smiles,measurement,setting,value
CN1[C@@H]2CC[C@H]1C[C@@H](OC(c1ccccc1)c1ccccc1)C2 [benztropine],tyrosinase activity of cell extracts,tyrosinase [1]; 10 micromolar compound,greater tyrosinase activities than untreated cells
same,"tyrosinase activity of extracts, cells expressing both P protein and tyrosinase",P protein; 10 micromolar compound,did not have an appreciable effect
same,"tyrosinase activity of extracts, cells expressing only tyrosinase",tyrosinase [2]; 10 micromolar compound,did not have an appreciable effect
CC(C)C[C@H](NC(=O)[C@H]1O[C@@H]1C(=O)O)C(=O)NCCCCN=C(N)N [E64],tyrosinase activity in the media as percentage of total activity in extract and medium,"melan-p1 cells [3]; melan-p1, 0.03 mM tyrosine, 12.5 μM E64, 48 hours (untreated 7.1%)",4.0%
same,tyrosinase activity in the media as percentage of total activity in extract and medium,"melan-p1 cells [3]; melan-p1, 0.03 mM tyrosine, 25 μM E64, 48 hours (untreated 7.1%)",3.8%
same,tyrosinase activity in the media as percentage of total activity in extract and medium,"melan-p1 cells [3]; melan-p1, 0.3 mM tyrosine, E64, 48 hours (untreated 6.5%)",3.9%
same,intracellular melanin production,melan-p1 cells [4],reduced intracellular melanin production
CC(=O)[C@H]1CC[C@H]2[C@@H]3CCC4=CC(=O)CC[C@]4(C)[C@H]3CC[C@]12C [progesterone],"cholesterol movement from the PM to the ER, from the late endosome/lysosome to the ER and to the PM",[5],inhibit cholesterol movement
C/C=C/[C@H]1O[C@@](O)([C@@H](C)[C@H](O)[C@H](C)[C@H]2OC(=O)/C(OC)=C/C(C)=C/[C@@H](C)[C@@H](O)[C@@H](C)[C@@H](O)[C@H](C)C/C(C)=C/C=C/[C@@H]2OC)C[C@@H](O[C@H]2C[C@@H](O)[C@H](OC(N)=O)[C@@H](C)O2)[C@@H]1C [concanamycin B],inhibition of p-glycoprotein ATPase activity,p-glycoprotein ATPase,inhibit p-glycoprotein ATPase activity at micromolar concentrations
CCCCCCCCCCCCC/C=C/[C@@H](O)[C@@H](N)CO [sphingosine],"cholesterol movement from the PM to the ER, from the late endosome/lysosome to the ER and to the PM",[5],inhibit cholesterol movement
"O=C(O)/C=C\C(=O)O.O=[N+]([O-])c1ccc2nc(N3CCNCC3)ccc2c1 [nitroquipazine, 6-nitro-2-(1-piperazinyl)-quinoline maleate]",tyrosinase activity of cell extracts,tyrosinase [1]; 30 micromolar compound,greater tyrosinase activities than untreated cells
same,"tyrosinase activity of extracts, cells expressing both P protein and tyrosinase",P protein; 30 micromolar compound,lower tyrosinase activity
same,"tyrosinase activity of extracts, cells expressing only tyrosinase",tyrosinase [2]; 30 micromolar compound,lower tyrosinase activity
C/C=C/[C@H]1O[C@@](O)([C@@H](C)[C@H](O)[C@H](C)[C@H]2OC(=O)/C(OC)=C/C(C)=C/[C@@H](C)[C@@H](O)[C@@H](CC)[C@@H](O)[C@H](C)C/C(C)=C/C=C/[C@@H]2OC)C[C@@H](O[C@H]2C[C@@H](O)[C@H](OC(N)=O)[C@@H](C)O2)[C@@H]1C [concanamycin A],activation of melanogenesis,[6],activate melanogenesis
same,melanin content,[7]; [9],is decreased
same,melanin content,"B16 melanoma cells; B16, concanamycin A 0, 0.5 or 1.0 μM",does not respond
same,melanin content,Melan-p (P10) cells; [9],is decreased
same,melanin levels,[8]; [9],increase with an increase in concanamycin A concentration
same,pigmentation,"B16F10 melanoma cells; B16F10, concanamycin A 0, 0.5 or 1.0 μM",demonstrates increasing pigmentation which diminishes at higher concentrations
same,inhibition of p-glycoprotein ATPase activity,p-glycoprotein ATPase,inhibit p-glycoprotein ATPase activity at micromolar concentrations
CO/C1=C\C(C)=C\[C@@H](C)[C@@H](O)[C@@H](C)C/C(C)=C/C=C/[C@H](OC)[C@@H]([C@@H](C)[C@@H](O)[C@H](C)[C@@]2(O)C[C@@H](O)[C@H](C)[C@@H](C(C)C)O2)OC1=O [bafilomycin A1],activation of melanogenesis,[6],activate melanogenesis
same,melanin content,[7]; [10],initially increases in the presence of μM concentrations of bafilomycin A1 but drops at the highest concentration tested
same,melanin content,"B16 melanoma cells; B16, bafilomycin A1 0, 1, 2 or 2.5 μM",does not respond
same,melanin content,Melan-p (P10) cells; [10],initially increases in the presence of μM concentrations of bafilomycin A1 but drops at the highest concentration tested
same,melanin levels,[8]; [10],increased with an increase in bafilomycin A1 concentration
same,pigmentation,"B16F10 melanoma cells; B16F10, bafilomycin A1 0, 1, 2 or 2.5 μM",demonstrates increasing pigmentation which diminishes at higher concentrations
same,inhibition of p-glycoprotein ATPase activity,p-glycoprotein ATPase,inhibit p-glycoprotein ATPase activity at micromolar concentrations
